Where a name gives a salt, the structure may show the parent alone.
These compounds were tested on Acinetobacter baumannii ATCC17978 (assay: Antimicrobial susceptibility testing: 90% growth inhibitory concentration (IC90) determination, Iso-Sensitest broth). Details: 90% growth inhibitory concentration, Acinetobacter baumannii ATCC17978, Iso-Sensitest broth, OD 600 nm over 16 h; read-out: ATCC17978 IC90.
Type: cell-based
Summary of the method: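 A. baumannii ATCC17978 grown in Iso-Sensitest broth across 10 compound concentrations at 35±2 °C.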

SMILES	IC90 [nM]
Cc1cc(Nc2nccn3c(-c4ccc(O[C@@H](C)C#N)c(F)c4F)cnc23)ccc1C(=O)N1CCN(C(=O)[C@@H]2C[C@@H](O)CN2)CC1 [Example 468, (2S)-2-[2,3-difluoro-4-[8-[4-[4-[(2S,4R)-4-hydroxypyrrolidine-2-carbonyl]piperazine-1-carbonyl]-3-methylanilino]imidazo[1,2-a]pyrazin-3-yl]phenoxy]propanenitrile; for-mic acid]	200
CN(C)CCN1CCN(C(=O)c2ccc(Nc3nccn4c(-c5ccc(OCC#N)c(F)c5Cl)cnc34)cc2Cl)CC1 [Example 25, 2-[3-chloro-4-[8-[3-chloro-4-[4-[2-(dimethylamino)ethyl]piperazine-1-carbonyl]anilino]imidazo[1,2-a]pyrazin-3-yl]-2-fluoro-phenoxy]acetontrile]	140
COc1ccc(-c2cnc3c(Nc4ccc(C(=O)N5CCN(C(=O)[C@@H]6CCCN6)CC5)c(C)c4)nccn23)cc1F [Example 178, [4-[[3-(3-fluoro-4-methoxy-phenyl)imidazo[1,2-a]pyrazin-8-yl]amino]-2-methyl-phenyl]-[4-[(2S)-pyrrolidine-2-carbonyl]piperazin-1-yl]methanone hydrochloride]	89
Cc1cc(Nc2nccn3c(-c4ccc(OC(F)F)cc4)cnc23)ccc1C(=O)N1CCN(C(N)=O)CC1 [Example 74, 4-(4-((3-(4-(difluoromethoxy)phenyl)imidazo[1,2-a]pyrazin-8-yl)amino)-2-methylbenzoyl)piperazine-1-carboxamide]	71
Cc1cc(Nc2nccn3c(-c4ccc(OCC#N)c(F)c4Cl)cnc23)ccc1C(=O)N1CCN(C(=O)NC[C@@H](C)N)CC1 [Example 164, N-[(2R)-2-aminopropyl]-4-[4-[[3-[2-chloro-4-(cyanomethoxy)-3-fluoro-phenyl]imidazo[1,2-a]pyrazin-8-yl]amino]-2-methyl-benzoyl]piperazine-1-carboxamide formate]	71
COc1ccc(-c2cnc3c(Nc4ccc(C(=O)NC5CC6(CNC6)C5)c(C)c4)nccn23)cc1F [Example 414, N-(2-azaspiro[3.3]heptan-6-yl)-4-[[3-(3-fluoro-4-methoxyphenyl)imidazo[1,2-a]pyrazin-8-yl]amino]-2-methylbenzamide; hydrochlo-ride]	770
Cc1cc(Nc2nccn3c(-c4ccc(Oc5ccncc5)c(F)c4F)cnc23)ccc1C(=O)N1CCC(CN)CC1 [Example 123, [4-(aminomethyl)-1-piperidyl]-[4-[[3-[2,3-difluoro-4-(4-pyridyloxy)phenyl]imidazo[1,2-a]pyrazin-8-yl]amino]-2-methyl-phenyl]methanone]	760
COc1ccc(-c2cnc3c(Nc4ccc(C(=O)N5CCN(C(=O)CN(C)C)CC5)c(C)c4)nccn23)cc1F [Example 64, 2-(dimethylamino)-1-(4-(4-((3-(3-fluoro-4-methoxyphenyl)imidazo[1,2-a]pyrazin-8-yl)amino)-2-methylbenzoyl)piperazin-1-yl)ethanone]	270
COc1ccc(-c2cnc3c(Nc4ccc(C(=O)N5CCC(C(=O)N6CCNC(C(=O)O)C6)CC5)c(C)c4)nccn23)c(F)c1F (centres unmarked) [Example 266, 4-[1-[4-[[3-(2,3-difluoro-4-methoxyphenyl)imidazo[1,2-a]pyrazin-8-yl]amino]-2-methylbenzoyl]piperidine-4-carbonyl]piperazine-2-carboxylic acid]	1100
Cc1cc(Nc2nccn3c(-c4ccc(OC(C)C#N)c(F)c4F)cnc23)ccc1C(=O)N1CCN(CCCN(C)C)CC1 (centres unmarked) [Example 237, 2-[4-[8-[4-[4-[3-(dimethylamino)pro-pyl]piperazine-1-carbonyl]-3-methyl-anilino]imidazo[1,2-a]pyrazin-3-yl]-2,3-difluoro-phenoxy]propanenitrile formate]	370

Same assay, conditions: Acinetobacter baumannii, ATCC17978, 16 h, read-out: ATCC17978 IC90, 90% growth inhibitory concentration, Acinetobacter baumannii ATCC17978, Iso-Sensitest broth, OD 600 nm over 16 h

SMILES	IC90 [nM]
CNC1CCN(C(=O)c2ccc(Nc3nccn4c(-c5ccc(OC(F)F)cc5)cnc34)cc2C)CC1 [Example 374, [4-[[3-[4-(difluoromethoxy)phenyl]imi-dazo[1,2-a]pyrazin-8-yl]amino]-2-methylphenyl]-[4-(methylamino)piperidin-1-yl]methanone; hydrochloride]	1700
COc1ccc(-c2cnc3c(Nc4ccc(C(=O)N5CCC(C(=O)NC6CNC6)CC5)c(C)c4)nccn23)cc1F [Example 57, N-(azetidin-3-yl)-1-(4-((3-(3-fluoro-4-methoxyphenyl)imidazo[1,2-a]pyrazin-8-yl)amino)-2-methylbenzoyl)piperidine-4-carboxamide 2,2,2-trifluoroacetate]	250
Cc1cc(Nc2nccn3c(-c4ccc(OC(F)F)cc4)cnc23)ccc1C(=O)N1CCN(C(=O)[C@@H]2C[C@](C)(O)CN2)CC1 [Example 462, [4-[[3-[4-(difluoromethoxy)phenyl]imi-dazo[1,2-a]pyrazin-8-yl]amino]-2-methylphenyl]-[4-[(2S,4S)-4-hydroxy-4-methylpyrrolidine-2-carbonyl]piperazin-1-yl]methanone; formic acid]	110
CNCCNC(=O)N1CCN(C(=O)c2ccc(Nc3nccn4c(-c5ccc(OC(F)F)cc5)cnc34)cc2C)CC1 [Example 524, 4-[4-[[3-[4-(difluoromethoxy)phenyl]imi-dazo[1,2-a]pyrazin-8-yl]amino]-2-methylbenzoyl]-N-[2-(methylamino)eth-yl]piperazine-1-carboxamide; hydrochloride]	470
Cc1cc(Nc2nccn3c(-c4ccc(OC(F)F)cc4)cnc23)ccc1C(=O)N1CCN(C(=O)C2(C#N)CCNCC2)CC1 [Example 517, 4-[4-[4-[[3-[4-(difluoromethoxy)phenyl]imi-dazo[1,2-a]pyrazin-8-yl]amino]-2-methylbenzoyl]piperazine-1-carbonyl]piperidine-4-carbonitrile; hydrochloride]	660
COc1ccc(-c2cnc3c(Nc4ccc(C(=O)N5CCC(C(=O)NCCN)CC5)c(C)c4)nccn23)cc1F [Example 393, N-(2-aminoethyl)-1-[4-[[3-(3-fluoro-4-methoxyphenyl)imidazo[1,2-a]pyrazin-8-yl]amino]-2-methylbenzoyl]piperidine-4-carboxamide; hydrochloride]	340
Cc1cc(Nc2nccn3c(-c4ccc(OC(F)F)cc4)cnc23)ccc1C(=O)N1CCN(C(=O)C2C=CNCC2)CC1 (centres unmarked) [Example 501, [4-[[3-[4-(difluoromethoxy)phenyl]imi-dazo[1,2-a]pyrazin-8-yl]amino]-2-methylphenyl]-[4-(1,2,3,4-tetrahydropyridine-4-carbonyl)piperazin-1-yl]methanone; hydrochloride]	410
COc1ccc(-c2cnc3c(Nc4ccc(C(=O)N5CCC(C(=O)NCCCN)CC5)c(C)c4)nccn23)cc1F [Example 52, N-(3-aminopropyl)-1-(4-((3-(3-fluoro-4-methoxyphenyl)imidazo[1,2-a]pyrazin-8-yl)amino)-2-methylbenzoyl)piperidine-4-carboxamide hydrochloride]	230
CNCC(=O)N1CCN(C(=O)c2ccc(Nc3nccn4c(-c5ccc(OC(F)F)cc5)cnc34)cc2C)CC1 [Example 320, 1-[4-[4-[[3-[4-(difluoromethoxy)phenyl]imi-dazo[1,2-a]pyrazin-8-yl]amino]-2-methylbenzoyl]piperazin-1-yl]-2-(methylamino)ethanone; hy-drochloride]	280
COc1ccc(-c2cnc3c(Nc4ccc(C(=O)N5CCN(C(=O)N6CCN[C@@H](C(=O)O)C6)CC5)c(C)c4)nccn23)c(F)c1F [Example 436, (2R)-4-[4-[4-[[3-(2,3-difluoro-4-methoxyphenyl)imidazo[1,2-a]pyrazin-8-yl]amino]-2-methylbenzoyl]piperazine-1-carbonyl]piperazine-2-carboxylic acid; formic acid]	760
Cc1cc(Nc2nccn3c(-c4ccc(OC(F)F)cc4)cnc23)ccc1C(=O)N1CCN(C(=O)C2CCNCC2O)CC1 (centres unmarked) [Example 523, [4-[[3-[4-(difluoromethoxy)phenyl]imi-dazo[1,2-a]pyrazin-8-yl]amino]-2-methylphenyl]-[4-(3-hydroxypiperidine-4-carbonyl)piperazin-1-yl]methanone; hydrochloride]	390
Cc1cc(Nc2nccn3c(-c4ccc(OC(F)F)cc4)cnc23)ccc1C(=O)N1CCC2(COC2)C1 [Example 365, [4-[[3-[4-(difluoromethoxy)phenyl]imi-dazo[1,2-a]pyrazin-8-yl]amino]-2-methylphenyl]-(2-oxa-7-azaspiro[3.4]octan-7-yl)methanone]	550
COc1ccc(-c2cnc3c(Nc4ccc(C(=O)N5CCN(C(=O)[C@H]6CCNC[C@@H]6O)CC5)c(C)c4)nccn23)c(F)c1F (racemic) [Example 489, [4-[[3-(2,3-difluoro-4-methoxyphenyl)imidazo[1,2-a]pyrazin-8-yl]amino]-2-methylphenyl]-[4-[rac-(3R,4S)-3-hydroxypiperidine-4-carbonyl]piperazin-1-yl]methanone; hydrochloride]	270
Cc1cc(Nc2nccn3c(-c4ccc(OC(F)F)cc4)cnc23)ccc1C(=O)N1CCN(C(=O)CNC(=N)N)CC1 [Example 316, 1-[2-[4-[4-[[3-[4-(difluoromethoxy)phenyl]imi-dazo[1,2-a]pyrazin-8-yl]amino]-2-methylbenzoyl]piperazin-1-yl]-2-oxoethyl]guanidine; formic acid]	240
CN[C@@H]1CCN(C(=O)C2CCN(C(=O)c3ccc(Nc4nccn5c(-c6ccc(OC)c(F)c6)cnc45)cc3C)CC2)C1 [Example 50, (R)-(1-(4-((3-(3-fluoro-4-methoxyphenyl)imidazo[1,2-a]pyrazin-8-yl)amino)-2-methylbenzoyl)piperidin-4-yl)(3-(methylamino)pyrrolidin-1-yl)methanone hydrochloride]	290
Cc1cc(Nc2nccn3c(-c4ccc(OC(F)F)cc4)cnc23)ccc1C(=O)N1CCN(C(=O)[C@H]2CNCCN2)CC1 [Example 508, [4-[[3-[4-(difluoromethoxy)phenyl]imi-dazo[1,2-a]pyrazin-8-yl]amino]-2-methylphenyl]-[4-[(2R)-piperazine-2-carbonyl]piperazin-1-yl]methanone; hydrochloride]	530

Source: patent US20230011869A1 (Hoffmann-La Roche Inc., priority 2018, published 2023)
